Experimental data from patent US20200383969A1, “RIMEGEPANT FOR CGRP RELATED DISORDERS” (Biohaven Pharmaceutical Holding Company Ltd., priority 2018, published 2020).

How the values were obtained:
[1] = Pooled liver function test profile, Studies 301 and 302; assay type: in vivo, human; conditions: pooled Studies 301+302; n = 1089
Experimental: Results from Clinical Trials—The study results from the clinical studies described in Example 2 and Example 3 are set forth in FIG. 1, FIG. 2 and Table 2, Table 3 and Table 4.
(§1) In a double-blind, randomized, placebo-controlled, multicenter study (Study 301, NCT03235479) adults ≥18 years of age with at least a 1-year history of ICHD 3-beta migraine were eligible to participate. Following a 3- to 28-day screening period, subjects were randomized to receive rimegepant 75 mg or matching placebo and instructed to treat a single migraine attack with 1 dose of the blinded study drug (rimegepant or placebo) when headache pain reached moderate or severe intensity. The coprimary endpoints were pain freedom at 2 hours postdose and freedom from the most bothersome symptom (MBS) at 2 hours postdose. Safety assessments included adverse events (AEs), ECGs, vital signs, physical measurements, and routine laboratory tests, including assessment of liver function. Unless stated otherwise, values presented are mean ±SD.
as §1, with “302, NCT03237845)” for “301, NCT03235479)”

[2] = Study 302 (BHV3000-302), Phase 3, rimegepant 75 mg tablet vs placebo, acute treatment of migraine; assay type: in vivo, human
Description: Clinical Trial—BHV3000-302 : Phase 3: Double-Blind, Randomized, Placebo-Controlled, Safety and Efficacy Trial of BHV-3000 (Rimegepant) for the Acute Treatment of Migraine (ClinicalTrials.gov Identifier: NCT03237845) • Study Type: Interventional (Clinical Trial) • Actual Enrollment: 1503 participants • Allocation: Randomized • Intervention Model: Parallel Assignment • Intervention Model Description: Double-blind to Sponsor, Investigator and Subject • Masking: Triple (Participant, Care Provider, Investigator) • Masking Description: Double-blind to Sponsor, Investigator and Subject • Primary Purpose: Treatment • Official Title: BHV3000-302: Phase 3: Double-Blind, Randomized, Placebo-Controlled, Safety and Efficacy Trial of BHV-3000 (Rimegepant) for the Acute Treatment of Migraine • Actual Study Start Date : Jul. 26, 2017 • Primary Completion Date : Jan. 25, 2018 • Study Completion Date : Jan. 31, 2018 • 1. Pain Freedom of rimegepant (75 mg tablet) compared with placebo in the acute treatment of migraine will be measured using the number of evaluable subjects that report no pain at 2 hours post-dose. [Time Frame: Two hours post dose] • Pain will be measured on a 4 point Likert scale (0=none, 1=mild, 2=moderate, 3=severe) • 2. Freedom from the most bothersome symptom (MBS) of rimegepant (75 mg tablet) compared with placebo will be measured using the number of evaluable subjects that report the absence of their MBS at 2 hours post-dose. [Time Frame: Two hours post dose] • The MBS (nausea, phonophobia or photophobia) will measured using a binary scale (0=absent, 1=present). • 1. […] [Time Frame: 2 hours -24 hours post-dose] • Sustained Pain Freedom as measured by a 4 point numeric rating scale (None, Mild, Moderate, Severe) • 2. Rimegepant (75 mg tablet) compared to placebo by tabulating the number of subjects that report the absence of photophobia at 2 hours post-dose in the subset of subjects that reported the presence of photophobia at headache baseline. [Time Frame: 2 hours post-dose] • Freedom from Photophobia • 3. Rimegepant (75 mg tablet) compared to placebo by tabulating the number of subjects that report the absence of phonophobia at 2 hours post-dose in the subset of subjects that reported the presence of phonophobia at headache baseline. [Time Frame: 2 hours post-dose] • Freedom from Phonophobia • 4. To measure rimegepant (75 mg tablet) compared to placebo on Pain Relief, at 2 hours post-dose, that report a pain level of moderate or severe at baseline and then report a pain level of none or mild. [Time Frame: 2 hours post-dose] • Pain Relief as measured by a 4 point numeric rating scale (None, Mild, Moderate, Severe) • 5. Freedom from Nausea will by tabulating the number of subjects that report the absence of nausea at 2 hours post-dose in the subset of subjects that reported the presence of nausea at headache baseline. [Time Frame: 2 hours post-dose] • Freedom from Nausea • 6. To measure rimegepant (75 mg tablet) compared to placebo on the probability of requiring rescue medication will be assessed using the number of subjects that take rescue medication within […] administration of study medication (BHV3000 or placebo). [Time Frame: up to 24 hours post-dose] • Requiring Rescue Medication • 7. […] [Time Frame: 2 hours-48 hours post-dose] • Sustained Pain Freedom as measured by a 4 point numeric rating scale (None, Mild, Moderate, Severe) • 8. […] [Time Frame: 2 hours-24 hours post-dose] • Sustained Pain Relief as measured by a 4 point numeric rating scale (None, Mild, Moderate, Severe) • 9. […] [Time Frame: 2 hours-48 hours post-dose] • Sustained Pain Relief as measured by a 4 point numeric rating scale (None, Mild, Moderate, Severe) • 10. Rimegepant (75 mg tablet) relative to placebo on the proportion of subjects able to function normally, at 2 hours, using the number of subjects that self-report as “normal” on the functional disability scale. [Time Frame: 2 hours post-dose] • Functional Disability Score • 11. […]

Bilirubin elevations greater than 2 times ULN ([2]; 75 mg tablet): no bilirubin elevations
Transaminase level greater than 3 times ULN ([2]; 75 mg tablet): No subject
SMILES: N[C@@H]1c2cccnc2[C@H](OC(=O)N2CCC(n3c(=O)[nH]c4ncccc43)CC2)CC[C@H]1c1cccc(F)c1F [Rimegepant, [(5S,6S,9R)-5-amino-6-(2,3-difluorophenyl)-6,7,8,9-tetrahydro-5H-cyclohepta[b]pyridin-9-yl] 4-(2-oxo-3H-imidazo[4,5-b]pyridin-1-yl)piperidine-1-carboxylate]
ALT >3 × ULN, subjects [1]: 0.1%
ALT >ULN, subjects [1]: 2.0%
AST >3 × ULN, subjects [1]: 0.1%
AST >ULN, subjects [1]: 1.1%
SAEs related to the study drug [2]: No SAEs
AE nausea, incidence ([2]; 75 mg tablet): 1.8%
AE nausea, n/N ([2]; 75 mg tablet): 10/543
AE urinary tract infection, incidence ([2]; 75 mg tablet): 1.5%
AE urinary tract infection, n/N ([2]; 75 mg tablet): 8/543
Serum ALT or AST > ULN, n/N ([2]; 75 mg tablet): 13/543
Serum ALT or AST > ULN, subjects ([2]; 75 mg tablet): 2.4%
Normal function at 2 hours (functional disability) vs placebo ([2]; P<0.0001): greater proportion
Serious AEs, number of subjects ([2]; back pain): 1
Sustained pain relief from 2 through 48 hours postdose vs placebo ([2]; single dose, no rescue medication, P<0.0001): superiority versus placebo
Sustained pain freedom from 2 through 48 hours postdose vs placebo ([2]; single dose, no rescue medication, P=0.0181): superiority versus placebo
